According to PMC11700842 (The Journal of Antibiotics, 2024):
Values after ≈ are worked out from the molar mass of the structure shown. Like-named read-outs stand apart in the source and are kept apart here.

Tests used:
M. smegmatis [1] = assay: Ethidium bromide accumulation assay in M. smegmatis; format: cell-based; conditions: analogues 100 µM, verapamil 102 µM, with glucose; for % Change in fluorescence (accumulation): end of 60 min assay; for Rate of accumulation (ethidium bromide): rate from 5–14 minutes
E. faecium E745 = assay: microbe, parasite or virus in culture; format: cell-based; conditions: Enterococcus faecium, E745, 24 h, read-out: MIC99 E. faecium E745
M. smegmatis [2] = assay: Ethidium bromide efflux assay in M. smegmatis; format: cell-based; conditions: for % Change in fluorescence (efflux) / Rate of efflux (ethidium bromide): analogues 100 µM, verapamil 102 µM, with glucose; for % Change in fluorescence (efflux): end of 60 min assay; for Rate of efflux (ethidium bromide): rate from 0–9 minutes
M. bovis BCG [3] = format: cell-based; conditions: analogues 100 µM, verapamil 102 µM, with glucose; for % Change in fluorescence (efflux): end of 60 min assay; for Rate of efflux (ethidium bromide): rate from 0–9 minutes
M. smegmatis [4] = assay: MIC determination (resazurin) against M. smegmatis; format: cell-based, M. smegmatis mc^2155; conditions: Mycolicibacterium smegmatis; lowest concentration reducing growth to 1% or less; 21 h + 3 h resazurin; N = 3
M. bovis BCG [5] = format: cell-based; conditions: analogues 100 µM, verapamil 102 µM, with glucose; for % Change in fluorescence (accumulation): end of 60 min assay; for Rate of accumulation (ethidium bromide): rate from 5–14 minutes
[6] = system: M. bovis BCG membrane electric potential; format: cell-based
[7] = target: T1, human dopamine transporter (Homo sapiens, UniProt Q01959); assay: cell-based; format: cell-based; conditions: for IC50: CHO cells transfected with human dopamine transporter, 0.3 µM [3H] dopamine, 90 min, read-out: IC50 against dopamine transporter; for IC50 / inhibition at 0.1 µM: N = 3; for inhibition at 0.1 µM: CHO, dopamine transporter uptake, 100 nM
T1 construct: host or cells: Chinese hamster ovary (CHO) cells
Experimental: This assay was performed by Eurofins Discovery and is based on a reported method. […] Following incubation, the amount of [^3H] dopamine was quantified using a scintillation counter (Topcount, Packard). The results were expressed as a percentage inhibition relative to the control uptake of [^3H] dopamine.
In this assay, five concentrations of each analogue were tested, in triplicate, ranging from 10 µM to 100 nM (Supplementary Fig. S2).
26 Supplementary Figure S2: Dopamine transporter uptake assays monitoring
The uptake of [3H] dopamine into Chinese
28 hamster ovary cells, transfected with the human dopamine transporter, was used to […]

dopamine transporter [8] = system: dopamine transporter; set-up: method as in PMID 28274674; conditions: human embryonic kidney 293 cells; 20 nM [3H] dopamine over 5 min at 37 °C; read-out: IC50 against the dopamine transporter; cited from earlier work
dopamine transporter [9] = format: cell-based; conditions: based on IC50 from Paudel et al.
Streptococcus pneumoniae = system: Streptococcus pneumoniae; set-up: method as in PMID 36982905; conditions: cited from earlier work
[10] = three patients with structural heart disease; cited from earlier work
[11] = M. bovis BCG, test compounds 100 µM, CCCP 25 µM, Fig. 3

T1 sequence (Q01959 whole entry): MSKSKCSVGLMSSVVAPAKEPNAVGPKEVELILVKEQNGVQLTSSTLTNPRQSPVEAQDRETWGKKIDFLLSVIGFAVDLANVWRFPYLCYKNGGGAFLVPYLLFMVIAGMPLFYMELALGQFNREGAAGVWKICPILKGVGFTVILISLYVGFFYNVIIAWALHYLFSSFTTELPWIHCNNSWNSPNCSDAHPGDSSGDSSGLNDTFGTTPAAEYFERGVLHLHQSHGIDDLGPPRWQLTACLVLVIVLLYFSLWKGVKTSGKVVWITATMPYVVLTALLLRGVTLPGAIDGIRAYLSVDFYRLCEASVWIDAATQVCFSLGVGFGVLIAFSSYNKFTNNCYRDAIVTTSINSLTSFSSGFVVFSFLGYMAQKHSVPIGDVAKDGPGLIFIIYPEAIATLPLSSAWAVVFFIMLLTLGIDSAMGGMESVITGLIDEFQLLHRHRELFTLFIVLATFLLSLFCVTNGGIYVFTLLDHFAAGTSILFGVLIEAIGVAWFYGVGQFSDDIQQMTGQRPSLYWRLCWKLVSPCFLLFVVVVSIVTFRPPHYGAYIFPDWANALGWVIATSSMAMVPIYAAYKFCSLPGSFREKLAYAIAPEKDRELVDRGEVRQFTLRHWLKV

Row | Structure (SMILES) | % Change in fluorescence (accumulation) (M. smegmatis [1]) [%] | Rate of accumulation (ethidium bromide) (M. smegmatis [1]) [RFUs/min] | MIC99 (E. faecium E745) [µM] | % Change in fluorescence (efflux) (M. smegmatis [2]) | Rate of efflux (ethidium bromide) (M. smegmatis [2]) | % Change in fluorescence (efflux) (M. bovis BCG [3]) | Rate of efflux (ethidium bromide) (M. bovis BCG [3]) | MIC99 (M. smegmatis [4]) [µM] | % Change in fluorescence (accumulation) (M. bovis BCG [5]) [%] | Rate of accumulation (ethidium bromide) (M. bovis BCG [5]) [RFUs/min] | impact on membrane electric potential (in words) [6, 11] | IC50 [7] [nM] | inhibition at 0.1 µM [7] [%] | IC50 (dopamine transporter [8]) [nM] | difference between MIC99 against M. bovis BCG and IC50 against the dopamine transporter (dopamine transporter [9]) [×] | difference between MIC99 against M. bovis BCG and IC50 against the dopamine transporter ([7]; based on data of this study) [×] | impact on membrane electric potential (in words) [6] | effect on ethidium bromide efflux (in words) (M. smegmatis [2]; 100 µM) | activity against Streptococcus pneumoniae (in words) (Streptococcus pneumoniae) | adverse cardiac event in phase III clinical trial [10]
1 | O=C(c1ccccc1)N1CCN(CCOC(c2ccc(F)cc2)c2ccc(F)cc2)CC1 [Compound 8] | 37 ± 2 | 600 ± 30 | > 100 | –63 ± 0.1% | –4300 ± 400 RFUs/min | –26 ± 0.2% | –1799 ± 400 RFUs/min | > 100 | 26 ± 2 | 120 ± 460 | – | – | – | – | – | – | – | – | – | –
2 | C#CCOC(CCN1CCN(CCOC(c2ccc(F)cc2)c2ccc(F)cc2)CC1)c1ccccc1 (stereo not drawn) [Compound 10] | 323 ± 7 | 4500 ± 260 | > 100 | –13 ± 0.1% | –1200 ± 200 RFUs/min | –13 ± 0.3% | –940 ± 700 RFUs/min | 100 | 66 ± 1 | 1200 ± 700 | greater impact than vanoxerine | < 100 | 95 | – | – | – | – | – | – | –
3 | Oc1ccc(CN2CCN(CCOC(c3ccc(F)cc3)c3ccc(F)cc3)CC2)cc1 [Compound 6] | 75 ± 2 | 1100 ± 40 | > 100 | –49 ± 0.3% | –2500 ± 200 RFUs/min | –21 ± 0.2% | –1400 ± 330 RFUs/min | > 100 | 36 ± 3 | 140 ± 480 | – | – | – | – | – | – | – | – | – | –
4 | Fc1ccc(C(OCCN2CCC(Cc3ccccc3)CC2)c2ccc(F)cc2)cc1 [Compound 3] | 286 ± 1 | 3000 ± 100 | 25 (≈ 10.5 µg/mL) | –11 ± 0.1% | –1400 ± 200 RFUs/min | –18 ± 6% | –1300 ± 200 RFUs/min | 50 | 67 ± 1 | 480 ± 300 | greater impact than vanoxerine | 140 | 35.8 | 6800 | 3.7 | 179 | – | – | – | –
5 | Fc1ccc(CN2CCN(CCOC(c3ccc(F)cc3)c3ccc(F)cc3)CC2)cc1 [Compound 5] | 175 ± 4 | 1300 ± 20 | > 100 | –25 ± 0.2% | –1700 ± 200 RFUs/min | –20 ± 0.02% | –1500 ± 50 RFUs/min | > 100 | 39 ± 1 | 130 ± 130 | – | – | – | – | – | – | – | – | – | –
6 | OC(CCN1CCN(CCOC(c2ccc(F)cc2)c2ccc(F)cc2)CC1)c1ccccc1 (stereo not drawn) [Compound 9] | 349 ± 1 | 4500 ± 40 | > 100 | –11 ± 0.1% | –1100 ± 110 RFUs/min | –16 ± 0.4% | –1200 ± 600 RFUs/min | 100 | 68 ± 1 | 1100 ± 1000 | greater impact than vanoxerine | < 100 | 98.2 | – | – | – | – | – | – | –
7 | Fc1ccc(C(OCCN2CCN(CC3CCCCC3)CC2)c2ccc(F)cc2)cc1 [Compound 7] | 94 ± 2 | 1000 ± 16 | 100 (≈ 42.9 µg/mL) | –43 ± 0.2% | –2200 ± 60 RFUs/min | –21 ± 0.1% | –1600 ± 100 RFUs/min | 100 | 32 ± 1 | 120 ± 90 | – | – | – | – | – | – | – | – | – | –
8 | c1ccc(CCCN2CCN(CCOC(c3ccccc3)c3ccccc3)CC2)cc1 [GBR12935, 1-[2-(Diphenylmethoxy)ethyl]-4-(3-phenylpropyl)piperazine, reference compound] | 90 ± 3 | 1100 ± 40 | > 100 | –37 ± 0.2% | –2000 ± 100 RFUs/min | –16 ± 0.1% | –1300 ± 150 RFUs/min | 100 | 34 ± 2 | 160 ± 240 | – | – | – | – | – | – | – | – | – | –
9 | Fc1ccc(C(OCCN2CCNCC2)c2ccc(F)cc2)cc1 [Compound 4] | 57 ± 6 | 2700 ± 310 | > 100 | –57 ± 0.1% | –4500 ± 400 RFUs/min | –16 ± 0.4% | –1000 ± 800 RFUs/min | > 100 | 46 ± 2 | 800 ± 2000 | – | – | – | – | – | – | – | – | – | –
10 | N#CC(C#N)=NNc1cccc(Cl)c1 [CCCP, Carbonyl cyanide m-chlorophenyl hydrazone, reference compound] | – | – | – | – | – | – | – | – | – | – | – | – | – | – | – | – | greatest loss of electric potential | – | – | –
11 | CCCCCCCCCC(=O)OC(CCN1CCN(CCOC(c2ccc(F)cc2)c2ccc(F)cc2)CC1)c1ccccc1 (stereo not drawn) [Compound 11] | 39 ± 2 | 1000 ± 160 | > 100 | –59 ± 0.1% | –5600 ± 160 RFUs/min | –28 ± 25% | –1900 ± 400 RFUs/min | > 100 | 45 ± 1 | 400 ± 300 | no impact on the electric potential | – | – | – | – | – | – | no effect on ethidium bromide efflux | – | –
12 | Fc1ccc(C(OCCN2CCN(CCCc3ccccc3)CC2)c2ccc(F)cc2)cc1 [vanoxerine, 1-[2-[Bis(4-fluorophenyl)methoxy]ethyl]-4-(3-phenylpropyl)piperazine, reference compound] | 299 ± 3 | 3000 ± 130 | 44 (≈ 19.8 µg/mL) | –11 ± 0.5% | –1100 ± 500 RFUs/min | –15 ± 1% | –1100 ± 950 RFUs/min | 50 | 48 ± 3 | 490 ± 800 | – | – | – | […] | – | – | – | – | inhibited Streptococcus pneumoniae | caused ventricular pro-arrhythmia
13 | COc1ccc(CCN(C)CCCC(C#N)(c2ccc(OC)c(OC)c2)C(C)C)cc1OC (stereo not drawn) [verapamil, reference compound] | 210 ± 7 | 2900 ± 140 | – | – | – | – | – | – | 52 ± 6 | 640 ± 1400 | – | – | – | – | – | – | – | – | – | –
